Measurements reported in US4535081A, “Antiallergic and antiulcer 1-oxo-1H-thiazolo[3,2-a]pyrimidine-2-carboxamides and intermediates therefor” (Pfizer Inc., priority 1983, dated 1985).
“Also recorded” adds a separate entry of the source.

Experiments:
[1] = tested on: plasma histamine rise in rats passively sensitized with IgE-rich antiserum; test: Passive systemic anaphylaxis, plasma histamine rise; type: in vivo, rat
[2] = tested on: IgG (hyperimmune antiserum) PCA reaction; test: Oral activity in PCA test, IgG; type: in vivo; conditions: Rattus norvegicus, 3 mg./kg., read-out: Oral Activity (% of Protection) in the PCA Test, IgG
Protocol: (§1) The antiallergy property of the compounds of this invention is evaluated by the passive cutaneous anaphylaxis (PCA) test (Ovary, J. Immun., 81, 355, 1958). In the PCA test, normal animals are injected intradermally (i.d.) with antibodies contained in serum obtained from actively sensitized animals. The animals are then challenged intravenously with antigen mixed with a dye such as Evans' Blue. The increased capillary permeability caused by the antigen-antibody reaction causes the dye to leak from the site of the antibody injection. The test animals are then asphyxiated and the intensity of the reaction determined by measuring the diameter and intensity of the blue coloration on the inner surface of the animals' skin.
The ability of agents to interfere with PCA reactions is measured in male Charles River Wistar rats, 170-210 g. Reaginic antiserum, rich in IgE antibodies, is prepared according to Petillo et al., Int. Arch. Allergy, 44, 309 (1973). Hyperimmune antiserum rich in IgG antibodies to hen egg albumin is prepared according to Orange et al., J. Exptl. Med., 127, 767 (1968). Forty-eight hours prior to antigen challenge, the reaginic antiserum is injected intradermally (i.d.) into the shaved skin of a normal rat's back; 5 hours before challenge the hyperimmune antisera is similarly injected. At a third site 60 mcg. histamine dihydrochloride and 0.5 mcg. serotonin creatinine sulfate are injected i.d. just prior to antigen challenge as a check for antihistaminic, antiserotonin and unspecific types of blockage; the compounds of the instant invention or saline are then administered i.v. and immediately followed by the challenge of 5 mg. egg albumen and 2.5 mg. Evans' Blue dye in saline. In the case of oral administration Evans' Blue dye and egg albumin are given 5 minutes after administration of the drug. Thirty minutes later the animals are asphyxiated using chloroform and the skin of the back removed and reversed for observation. A score is assigned each injection site equal to the product of the diameter of the site in mm. and a grade of 0.1, 0.5, 1, 2, 3 or 4 proportional to intensity of dye coloration. The scores for a given injection site are summed for each group of five animals and compared to the saline treated controls. The difference is expressed as percent blockage due to the compound employed.
Compounds representative of those of the present invention are tested for antiallergy activity by the above-described procedure and the resulting activities are reported as the degree (%) of protection.

Stability = type: physicochemical; conditions: solid state, with standard diluents / inert ingredients, or in solution
[3] = tested on: pentagastrin-stimulated acid output; test: Pentagastrin-stimulated acid output in Heidenhain pouch dogs; type: in vivo, dog; conditions: 5 mg/kg, i.v.
human lymphocytes = test: Chromosomal breakage in human lymphocytes in vitro; type: cell-based; conditions: 1000, 100, 10 or 0 μg/ml
[4] = tested on: cold-restraint stress gastric ulcer; test: Cold-restraint stressed rat ulcer assay; type: in vivo
Protocol: The effectiveness of the products of this invention as anticulcer agents is determined by the so-called cold-restraint stressed rat assay. In this test non-fasted female rats (Charles River C-D strain) weighing 70-140 gms. are administered the drug or carrier (control animals) intraperitoneally (in saline solution containing 1% carboxymethylcellulose and 0.1% Tween 80) or orally (in water) three hours before being lightly anesthetized with ether and taped in the supine position to individual sheets of plexiglass. After recovery from anesthesia, the restrained animals are positioned horizontally in a refrigerator maintained at 10°-12° C. and three hours later sacrificed by cervical dislocation. The abdomen of each rat is opened, the pylorus clamped, the stomach inflated with saline via an oral tube, the esophagus clamped and the stomach excised. The stomachs are placed in a 0.4% formaldehyde solution for approximately 30 seconds to harden the outer layers and facilitate examination. Each stomach is then cut open along the greater curvature and the glandular portion (hind stomach) examined for damage. The number of gastric erosions, their severity and the color of the stomachs is recorded. […]

[5] = tested on: passive cutaneous anaphylaxis (PCA); test: Intravenous activity in PCA test; type: in vivo, rat
Protocol: as §1, with “In” for “The antiallergy property of the compounds of this invention is evaluated by the passive cutaneous anaphylaxis (PCA) test (Ovary, J. Immun., 81, 355, 1958). In”
The ability of agents to interfere with PCA reactions is measured in male Charles River Wistar rats, 170-210 g. Reaginic antiserum, rich in IgE antibodies, is prepared according to Petillo et al., Int. Arch. […] Hyperimmune antiserum rich in IgG antibodies to hen egg albumin is prepared according to Orange et al., J. Exptl. […] Forty-eight hours prior to antigen challenge, the reaginic antiserum is injected intradermally (i.d.) into the shaved skin of a normal rat's back; 5 hours before challenge the hyperimmune antisera is similarly injected. […] The difference is expressed as percent blockage due to the compound employed.

dogs = test: Toleration study, oral, seven days, dogs; type: in vivo, dog
Protocol: In toleration studies, III were given orally by gavage to dogs for a period of seven days at doses of 50, 150 and 300 mg/kg/day.

[6] = tested on: isolated guinea pig ileum (slow reacting substance of anaphylaxis); test: Isolated ileum spasm, slow reacting substance of anaphylaxis; conditions: 10^-8 to 10^-4 M
[7] = oral, 7 days, 50, 150 and 300 mg/kg/day

O=C(Nc1nnn[nH]1)c1cnc2sc3c(n2c1=O)CCCC3 [Compound III, N-(5-Tetrazolyl)-1-oxo-1H-cyclohexenothiazolo[3,2-a]pyrimidine-2-carboxamide]
potency relative to Intal, passive systemic anaphylaxis ([1]; i.v., vs Intal): 13 times
passive systemic anaphylaxis ([1]; rat, in vivo): prevented
inhibition in vivo at 3 mg/kg [2]: 45%
stability (Stability): highly stable in a pure solid state, as well as in the presence of standard pharmaceutical diluents and in solution; also recorded: exceptionally good stability
pentagastrin-stimulated acid output [3]: does not affect pentagastrin-stimulated acid output
drug-induced chromosomal breakage, human lymphocytes (human lymphocytes): failed to reveal any significant drug-induced chromosomal breakage
oral dose range of dose-related protection, cold-restraint stress ([4]; oral): 3 to 100 µg/kg
potency in cold-restraint stress gastric ulcer procedure ([4]; rat, in vivo): extremely potent; also recorded: highly potent
intravenous activity range in the PCA test [5]: 0.03 to 1.0 mg/kg
potency relative to Intal in the PCA test ([5]; vs Intal): ~26 times
emetic effect, capsule after meals (dogs; capsule after, rather than before, meals): could be eliminated
gross pathological changes (dogs; [7]): No gross pathological changes were observed
microscopic examination of liver, kidney, heart and lung (dogs; [7]): did not reveal any changes
antagonism of spasm of isolated guinea pig ileum [6]: does not antagonize spasms
